The results in this text go back to patent US7687522B2, “Substituted pyridines and pyrimidines and their use in treatment of cancer” (Amgen Inc., priority 2006, dated 2010).

T1 sequence (P08581 1058-1365): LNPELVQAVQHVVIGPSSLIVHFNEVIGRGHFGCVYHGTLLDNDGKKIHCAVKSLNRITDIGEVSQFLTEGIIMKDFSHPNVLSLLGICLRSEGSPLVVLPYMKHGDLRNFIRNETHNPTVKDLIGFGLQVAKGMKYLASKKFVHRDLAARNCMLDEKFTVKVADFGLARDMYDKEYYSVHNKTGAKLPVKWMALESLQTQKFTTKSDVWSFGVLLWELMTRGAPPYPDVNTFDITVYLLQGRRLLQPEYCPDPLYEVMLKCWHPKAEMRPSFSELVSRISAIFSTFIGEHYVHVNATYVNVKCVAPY

This assay concerns the target T1, c-Met (Homo sapiens, UniProt P08581).
T1 construct: A PCR product covering residues 1058-1365 of c-Met (c-Met kinase domain) is generated; made in house; host or cells: baculovirus-infected (insect) cells
Description: c-Met receptor assay (HTRF kinase assay with GST-cMet (P) enzyme, gastrin substrate). In kind it is biochemical. The method, then: A PCR product covering residues 1058-1365 of c-Met (c-Met kinase domain) is generated as described in WO 06/116,713 the entirety of which is incorporated herein by reference.
Baculovirus cells are broken in 5× (volume/weight) of Lysis Buffer (50 mM HEPES, pH 8.0, 0.25 M NaCl, 5 mM mercaptoethanol, 10% glycerol plus Complete Protease Inhibitors (Roche (#10019600), 1 tablet per 50 mL buffer). The lysed cell suspension is centrifuged at 100,000×g (29,300 rpm) in a Beckman ultracentrifuge Ti45 rotor for 1 h. The supernatant is incubated with 10 ml of Glutathione Sepharose 4B from Amersham Biosciences (#27-4574-01). Incubation is carried out overnight in a cold room (approximately 8° C.). The resin and supernatant is poured into an appropriately sized disposable column and the flow through supernatant was collected. The resin is washed with 10 column volumes (100 mL) of Lysis Buffer. The GST-cMET is eluted with 45 mL of 10 mM Glutathione (Sigma #G-4251) in Lysis Buffer. The elution is collected as 15 mL fractions. Aliquots of the elution fractions are run on SDS PAGE (12% Tris Glycine gel, Invitrogen, #EC6005BOX). The gel is stained with 0.25% Coomassie Blue stain. Fractions with GST-cMET are concentrated with a Vivaspin 20 mL Concentrator (#VS2002; […]) to a final volume less than 2.0 ml. The concentrated GST-cMET solution is applied to a Superdex 75 16/60 column (Amersham Biosciences # 17-1068-01) equilibrated with 25 mM Tris, pH 7.5, 100 mM NaCl, 10 mM mercaptoethanol, 10% glycerol. The GST-cMET is eluted with an isocratic run of the above buffer, with the eluent collected in 1.0 mL fractions. Fractions with significant OD280 readings are run on another 12% Tris Glycine gel. The peak tubes with GST-cMET are pooled and the OD280 is read with the column buffer listed above as the blank buffer.
Phosphorylation of the purified GST-cMET is performed by incubating the protein for 3 h at RT with the following:
After incubation, the solution is concentrated in a Vivaspin 20 mL Concentrator to a volume less than 2.00 mL. The solution is applied to the same Superdex 75 16/60 column used above after re-equilibration. The GST-cMET is eluted as described above. The elution fractions corresponding to the first eluted peak on the chromatogram are run on a 12% Tris Glycine gel, as above, to identify the fractions with GST-cMET. Fractions are pooled and the OD280 is read with the column buffer used as the blank.
A Kinase reaction Buffer is prepared as follows:
When the assay is carried out, freshly add:
The HTRF buffer contains: 50 mM Tris-HCl (pH 7.5), 100 mM NaCl, 0.1% BSA, 0.05% Tween 20.5 mM EDTA Fresh add SA-APC (PJ25S Phycolink Streptavidin-Allophycocyanin Conjugate, Prozyme Inc.) and Eu-PT66 (Eu-W1024 labeled anti-phosphorotyrosine antibody PT66, AD0069, Lot 168465, Perkin-Elmer Inc.) to reach the final concentration: • 0.1 nM final Eu-PT66 • 11 nM final SA-APC Methods: 1. Dilute GST-cMet (P) enzyme in kinase buffer as follows: Prepare 8 nM GST-cMet (P) working solution (7.32 μM to 8 nM, 915 X, 10 μL to 9.15 mL). In a 96 well clear plate [Costar # 3365] add 100 μL in eleven columns, in one column add 100 μL kinase reaction buffer alone. 2. Assay plate preparation: Use Biomek FX to transfer 10 μL 8 nM GST-cMet (P) enzyme, 48.4 μL kinase reaction buffer, 1.6 μL compound (in DMSO) (Start concentration at 10 mM, 1 mM and 0.1 mM, sequential dilution 1:3 to reach 10 test points) in a 96 well costar clear plate [Costar # 3365], mix several times. Then incubate the plate at RT for 30 min. 3. Prepare Gastrin and ATP working solution in kinase reaction buffer as follows: Prepare 4 μM Gastrin and 16 μM ATP working solution
Use Biomek FX to add 20 μl ATP and Gastrin working solution to the assay plate to start reaction, incubate the plate at RT for 1 h. 4. Transfer 5 μL reaction product at the end of 1 h into 80 μL HTRF buffer in black plate [Costar # 3356], read on Discover after 30 min incubation.
As for `Cn1c(Nc2ccccc2)ncc(-c2ccc(Oc3ccnc(NC(=O)N4CCCC4)c3)cn2)c1=O` [Example 1, N-(4-(6-(1-methyl-6-oxo-2-(phenylamino)-1,6-dihydropyrimidin-5-yl)pyridin-3-yloxy)pyridin-2-yl)pyrrolidine-1-carboxamide], the Ki is 11 nM.
The result for `Cn1c(Nc2ccccc2F)ncc(-c2ccc(Oc3ccnc(NC(=S)N4CCCC4)c3)cn2)c1=O` [Example 3, N-(4-(6-(2-(2-fluorophenylamino)-1-methyl-6-oxo-1,6-dihydropyrimidin-5-yl)pyridin-3-yloxy)pyridin-2-yl)pyrrolidine-1-carbothioamide] reads 110 nM.
With `Cn1c(Nc2ccccc2)ncc(-c2ccc(Oc3ccnc(NC(=O)N4CCOCC4)c3)cn2)c1=O` [Example 6, N-(4-(6-(1-methyl-6-oxo-2-(phenylamino)-1,6-dihydropyrimidin-5-yl)pyridin-3-yloxy)pyridin-2-yl)morpholine-4-carboxamide] the figure was 57 nM.
Take `CN1CCN(C(=O)Nc2cc(Oc3ccc(-c4cnc(Nc5ccccc5)n(C)c4=O)nc3)ccn2)CC1` [Example 7, 4-methyl-N-(4-(6-(1-methyl-6-oxo-2-(phenylamino)-1,6-dihydropyrimidin-5-yl)pyridin-3-yloxy)pyridin-2-yl)piperazine-1-carboxamide]: the affinity corresponds to a Ki of 87 nM.
With `Cn1c(Nc2ccc(F)cc2)ncc(-c2ccc(Oc3ccnc(NC(=O)N4CCCC4)c3)cn2)c1=O` [Example 10, N-(4-(6-(2-(4-fluorophenylamino)-1-methyl-6-oxo-1,6-dihydropyrimidin-5-yl)pyridin-3-yloxy)pyridin-2-yl)pyrrolidine-1-carboxamide] the figure was 6 nM.
The result for `Cc1noc(-c2cccc(Nc3nccc(Oc4ccc(-c5cnc(Cc6ccccc6)n(C)c5=O)cc4F)n3)c2)n1` [Example 13, 2-benzyl-5-(3-fluoro-4-(2-(3-(3-methyl-1,2,4-oxadiazol-5-yl)phenylamino)pyrimidin-4-yloxy)phenyl)-3-methylpyrimidin-4(3H)-one] reads greater than 20000 nM; that for `CNc1nccc(Oc2ccc(-c3cnc(Cc4ccccc4)n(C)c3=O)cc2F)n1` [Example 14, 2-benzyl-5-(3-fluoro-4-(2-(methylamino)pyrimidin-4-yloxy)phenyl)-3-methylpyrimidin-4(3H)-one], 2340 nM.
With `CCn1c(Nc2ccc(F)cc2)ncc(-c2ccc(Oc3ccnc(NC(=O)N4CCC4)c3)c(F)c2)c1=O` [Example 21, N-(4-(4-(1-ethyl-2-(4-fluorophenylamino)-6-oxo-1,6-dihydropyrimidin-5-yl)-2-fluorophenoxy)pyridin-2-yl)azetidine-1-carboxamide] the figure was 12 nM.
Turning to `Cn1c(Nc2cccc(F)c2)ncc(-c2ccc(Oc3ccnc(NC(=O)N4CCCC4)c3)cn2)c1=O` [Example 25, N-(4-(6-(2-(3-fluorophenylamino)-1-methyl-6-oxo-1,6-dihydropyrimidin-5-yl)pyridin-3-yloxy)pyridin-2-yl)pyrrolidine-1-carboxamide], the Ki was determined as 11 nM.
With `Cn1c(Nc2cccc(F)c2)ncc(-c2ccc(Oc3ccnc(NC(=S)N4CCCC4)c3)cn2)c1=O` [Example 26, N-(4-(6-(2-(3-fluorophenylamino)-1-methyl-6-oxo-1,6-dihydropyrimidin-5-yl)pyridin-3-yloxy)pyridin-2-yl)pyrrolidine-1-carbothioamide] the figure was 30 nM.
